ChEMBL document CHEMBL4052627, “An overview of azoles targeting sterol 14α-demethylase for antileishmanial therapy” (Eur J Med Chem, 2017)
Values after ≈ are worked out from the molar mass of the structure shown.

Experiments:
Leishmania major [1] = assay: Antileishmanial activity against Leishmania major MRHO/IR/75/ER promastigote forms after 72 hrs by MTT assay; assay type: functional
Leishmania chagasi [2] = assay: Antileishmanial activity against Leishmania infantum chagasi MHOM/BR/1972/LD promastigote forms infected in golden hamster after 48 hrs by Alamar Blue assay; assay type: functional
[3] = Cytotoxicity against mouse NCTC-929 cells assessed as reduction in cell viability after 48 hrs by Alamar Blue assay; assay type: cell-based; conditions: NCTC-929, 48 h
Leishmania tropica [4] = assay: Antileishmanial activity against Leishmania tropica amastigote forms infected in human monocyte-derived macrophage assessed as reduction in parasite infection at 15 ug/ml relative to control; assay type: functional; design: scale not given: the % may be the effect or the level left
Leishmania mexicana [5] = assay: Antileishmanial activity against Leishmania mexicana Walter Reed 227 promastigote forms assessed as reduction in promastigotes sterol biosynthesis at 10 nM after 24 hrs in presence of [2-14C]mevalonate by liquid scintillation spectrometry analysis relative to control; assay type: functional; design: scale not given: the % may be the effect or the level left
Leishmania braziliensis [6] = assay: Antileishmanial activity against Leishmania braziliensis MHOM/BR/75/M2903 promastigotes forms in presence of terbinafine by trypan blue-staining based light microscopy; assay type: functional
Leishmania amazonensis [7] = assay: Antileishmanial activity against Leishmania amazonensis LV78 promastigotes forms after 8 days; assay type: functional; conditions: LV78, 192 h
Leishmania major [8] = assay: Antileishmanial activity against Leishmania major MHOM/SN/74/Seidman promastigote forms after 8 days; assay type: functional; conditions: 192 h
Leishmania donovani [9] = assay: Antileishmanial activity against Leishmania donovani […] promastigote forms after 8 days; assay type: functional; conditions: 192 h
Leishmania amazonensis [10] = assay: Antileishmanial activity against Leishmania amazonensis LV78 axenic amastigote forms after 8 days; assay type: functional; conditions: LV78, 192 h
Leishmania major [11] = assay: Antileishmanial activity against Leishmania major MRHO/IR/75/ER amastigote forms infected in mouse J774A.1 cells after 60 hrs by giemsa-staining based light microscopic analysis; assay type: functional, cell-based; conditions: J774.A1, 60 h
Leishmania donovani [12] = assay: Leishmanicidal activity against Leishmania donovani 1S MHOM/SD/00/1S-2D promastigote forms after 18 hrs by indirect microscopic analysis; assay type: functional
Leishmania amazonensis [13] = assay: Leishmanicidal activity against Leishmania amazonensis JOSEPHA promastigote forms after 18 hrs by indirect microscopic analysis; assay type: functional
Leishmania major [14] = assay: Leishmanicidal activity against Leishmania major KK promastigote forms after 18 hrs by indirect microscopic analysis; assay type: functional
Leishmania mexicana [15] = assay: Leishmanicidal activity against Leishmania mexicana 68 promastigote forms after 18 hrs by indirect microscopic analysis; assay type: functional; conditions: Leishmania mexicana, 68, 18 h
Leishmania mexicana [16] = assay: Leishmanicidal activity against Leishmania mexicana 390 promastigote forms after 18 hrs by indirect microscopic analysis; assay type: functional; conditions: Leishmania mexicana, 390, 18 h
Leishmania panamensis [17] = assay: Leishmanicidal activity against Leishmania panamensis LS94 promastigote forms after 18 hrs by indirect microscopic analysis; assay type: functional; conditions: LS94, 18 h
Leishmania panamensis [18] = assay: Leishmanicidal activity against Leishmania panamensis L334 promastigotes forms after 18 hrs by indirect microscopic analysis; assay type: functional; conditions: L334, 18 h
Leishmania major [19] = assay: Antileishmanial activity against Leishmania major infected in human assessed as healing of lesions at 200 mg/day, po administered for 6 weeks (reference value: 34%); assay type: functional
Leishmania braziliensis [20] = assay: Antileishmanial activity against Leishmania (Viannia) braziliensis infected in human assessed as cure rate at 5 to 8 mg/kg/day, po for 4 weeks; assay type: functional
[21] = Cytotoxicity against mouse J774A.1 cells assessed as reduction in cell viability after 2 mins by trypan blue dye-light microscopic analysis; assay type: cell-based, J774.A1
Leishmania tropica [22] = assay: Antileishmanial activity against Leishmania tropica amastigote forms infected in human monocyte-derived macrophage assessed as reduction in parasite infection at 2 ug/ml relative to control; assay type: functional; design: scale not given: the % may be the effect or the level left
Leishmania donovani [23] = assay: Antileishmanial activity against Leishmania donovani MHOM/IN/80/Dd8 amastigote forms infected in mouse J774A.1 cells assessed as reduction in parasite infection after 72 hrs by luciferase reporter gene assay; assay type: functional, cell-based; conditions: MHOM/IN/80/Dd8, J774.A1, 72 h
Leishmania donovani [24] = assay: Antileishmanial activity against Leishmania donovani MHOM/IN/80/Dd8 amastigote forms infected in golden hamster assessed as inhibition in parasite infection in spleen at 50 mg/kg, ip administered for 5 days measured at day 7 post treatment by giemsa-staining based assay relative to control; assay type: functional; conditions: MHOM/IN/80/Dd8, ip
[25] = Selectivity index, ratio of CC50 for mouse J774A.1 cells to IC50 for Leishmania donovani MHOM/IN/80/Dd8 amastigote forms infected in mouse J774A.1 cells; assay type: toxicity, cell-based; conditions: read-out: Ratio CC50/IC50
Leishmania mexicana [26] = assay: Antileishmanial activity against Leishmania mexicana MHOM/MX/95/NAN1 axenic amastigote forms after 96 hrs by uptiblue-based spectrofluorimetric analysis; assay type: functional; conditions: MHOM/MX/95/NAN1, 96 h
Leishmania mexicana [27] = assay: Antileishmanial activity against Leishmania mexicana MHOM/MX/95/NAN1 amastigote forms infected in Balb/c mouse peritoneal macrophages after 48 hrs by May-Grunwald-Giemsa staining-based assay; assay type: functional; conditions: MHOM/MX/95/NAN1, 48 h
Leishmania major [28] = assay: (§1) Antileishmanial activity against Leishmania major MHOM/SEN/96/NAN2 stationary phase promastigote forms infected in BALB/c mouse assessed as reduction in parasite burden in spleen at 10 mg/kg, ip qd administered for 5 consecutive days measured after 50 days by May-Grunwald-Giemsa staining-based method relative to control; assay type: functional; design: scale not given: the % may be the effect or the level left
Leishmania major [29] = assay: as §1, with “liver” for “spleen”; assay type: functional; design: scale not given: the % may be the effect or the level left
Leishmania major [30] = assay: as §1, with “popliteal node” for “spleen”; assay type: functional; design: scale not given: the % may be the effect or the level left
Leishmania major [31] = assay: Antileishmanial activity against Leishmania major MHOM/SA/85/JISH118 promastigote forms after 44 hrs by Alamar Blue assay; assay type: functional; conditions: MHOM/SA/85/JISH118, 44 h
Leishmania major [32] = assay: Antileishmanial activity against Leishmania major MHOM/SA/85/JISH118 promastigote forms after 48 hrs by flow cytometric analysis; assay type: functional; conditions: MHOM/SA/85/JISH118, 48 h
Leishmania major [33] = assay: Antileishmanial activity against Leishmania major MHOM/SA/85/JISH118 axenic amastigote forms after 44 to 46 hrs by Alamar Blue assay; assay type: functional
Leishmania chagasi [34] = assay: Antileishmanial activity against Leishmania infantum chagasi MHOM/BR/1972/LD amastigote forms infected in BALB/c mouse macrophage after 120 hrs by giemsa-staining based light microscopic analysis; assay type: functional
Leishmania major [35] = assay: Antileishmanial activity against wild type Leishmania major LV39 Rho/SU/59/P promastigote forms after 48 hrs; assay type: functional
Leishmania major [36] = assay: Antileishmanial activity against Leishmania major LV39 Rho/SU/59/P promastigote forms harboring C14DM null mutant after 48 hrs; assay type: functional

O/N=C1/c2ccccc2OC(c2cccc(Cl)c2)C1n1ccnc1 (stereo unspecified)
IC50 (Leishmania major [1]): 26.2 µM

Clc1ccccc1C(c1ccccc1)(c1ccccc1)n1ccnc1 [CLOTRIMAZOLE]
IC50 (Leishmania chagasi [2]): 2.81 µM | IC50 [3]: 39.2 to 42.7 µM

CC(=O)N1CCN(c2ccc(OCC3COC(Cn4ccnc4)(c4ccc(Cl)cc4Cl)O3)cc2)CC1 (stereo unspecified) [KETOCONAZOLE]
Activity (Leishmania tropica [4]): 85% | Activity (Leishmania mexicana [5]): 50% | MIC (Leishmania braziliensis [6]): 0.03 µM | IC50 (Leishmania amazonensis [7]): 0.55 to 3.54 µM | IC50 (Leishmania major [8]): 0.55 to 3.54 µM | IC50 (Leishmania donovani [9]): 0.55 to 3.54 µM | IC50 (Leishmania amazonensis [10]): 3.14 µM | IC50 (Leishmania major [11]): 12.8 µg/mL

OC(Cn1cncn1)(Cn1cncn1)c1ccc(F)cc1F [FLUCONAZOLE]
MIC (Leishmania donovani [12]): 104 µM (≈ 32 µg/mL) | MIC (Leishmania amazonensis [13]): 104 µM (≈ 32 µg/mL) | MIC (Leishmania major [14]): 104 µM (≈ 32 µg/mL) | MIC (Leishmania mexicana [15]): 104 µM (≈ 32 µg/mL) | MIC (Leishmania mexicana [16]): 104 µM (≈ 32 µg/mL) | MIC (Leishmania panamensis [17]): 104 µM (≈ 32 µg/mL) | MIC (Leishmania panamensis [18]): 104 µM (≈ 32 µg/mL) | IC50 (Leishmania amazonensis [7]): > 163 µM | IC50 (Leishmania major [8]): > 163 µM | IC50 (Leishmania donovani [9]): > 163 µM | Activity (Leishmania major [19]): 79% | Activity (Leishmania braziliensis [20]): 75 - 100%

CC[C@@H]([C@H](C)O)n1ncn(-c2ccc(N3CCN(c4ccc(OC[C@@H]5CO[C@@](Cn6cncn6)(c6ccc(F)cc6F)C5)cc4)CC3)cc2)c1=O [POSACONAZOLE]
MIC (Leishmania donovani [12]): 11.4 to 22.8 µM (≈ 7.99 to 16 µg/mL) | MIC (Leishmania amazonensis [13]): 11.4 to 22.8 µM (≈ 7.99 to 16 µg/mL) | MIC (Leishmania major [14]): 11.4 to 22.8 µM (≈ 7.99 to 16 µg/mL) | MIC (Leishmania mexicana [15]): 11.4 to 22.8 µM (≈ 7.99 to 16 µg/mL) | MIC (Leishmania mexicana [16]): 11.4 to 22.8 µM (≈ 7.99 to 16 µg/mL) | MIC (Leishmania panamensis [17]): 11.4 to 22.8 µM (≈ 7.99 to 16 µg/mL) | MIC (Leishmania panamensis [18]): 11.4 to 22.8 µM (≈ 7.99 to 16 µg/mL)

O/N=C1/c2ccccc2OC(c2ccc(Cl)cc2)C1n1ccnc1 (stereo unspecified)
CC50 at 2 min [21]: 355 µM | IC50 (Leishmania major [11]): 0.6 µM

O[C@](Cn1cncn1)(Cn1cnc(/C=C/c2ccc(OCC(F)(F)C(F)F)cc2)n1)c1ccc(F)cc1F
MIC (Leishmania braziliensis [6]): 0.03 µM

Clc1ccc([C@@]2(Cn3ccnc3)OC[C@H](COc3ccc(N4CCNCC4)cc3)O2)c(Cl)c1
Activity (Leishmania tropica [22]): 85%

Clc1cccc(CO/N=C2/c3cccc(Cl)c3CCC2Cn2ccnc2)c1 (stereo unspecified)
IC50 (Leishmania donovani [23]): 2.32 µM | inhibition in vivo at 50 mg/kg (Leishmania donovani [24]): 70% | selectivity ratio [25]: 25.6

CCn1cc(C(c2ccc(Cl)cc2Cl)n2ccnc2)c2cc(Br)ccc21 (stereo unspecified)
IC50 (Leishmania mexicana [26]): 4.4 µM | IC50 (Leishmania mexicana [27]): < 1 µM | Activity (Leishmania major [28]): 98.9% | Activity (Leishmania major [29]): 79% | Activity (Leishmania major [30]): 49.9%

Cc1ccc(OCCCCn2ccnc2)c(Cl)c1
EC50 (Leishmania major [31]): 0.21 µM | EC50 (Leishmania major [32]): 0.34 µM | EC50 (Leishmania major [33]): 11.7 µM

C[C@@H](c1ncncc1F)[C@](O)(Cn1cncn1)c1ccc(F)cc1F [VORICONAZOLE]
IC50 (Leishmania amazonensis [7]): 6.1 to 10.4 µM | IC50 (Leishmania major [8]): 6.1 to 10.4 µM | IC50 (Leishmania donovani [9]): 6.1 to 10.4 µM | IC50 (Leishmania amazonensis [10]): 5.84 µM

Clc1ccc(COC(Cn2ccnc2)c2ccc(Cl)cc2Cl)cc1 (stereo unspecified) [ECONAZOLE]
IC50 (Leishmania chagasi [2]): 5.36 µM | IC50 (Leishmania chagasi [34]): 11 µM | IC50 [3]: 39.2 to 42.7 µM

CCC(C)n1ncn(-c2ccc(N3CCN(c4ccc(OCC5COC(Cn6cncn6)(c6ccc(Cl)cc6Cl)O5)cc4)CC3)cc2)c1=O (stereo unspecified) [ITRACONAZOLE]
IC50 (Leishmania major [35]): 0.4 µM | IC50 (Leishmania major [36]): 2 µM

c1ccc(-c2ccc(C(c3ccccc3)n3ccnc3)cc2)cc1 (stereo unspecified) [BIFONAZOLE]
IC50 (Leishmania chagasi [2]): 8.97 µM | IC50 [3]: 39.2 to 42.7 µM
